“Also recorded” adds a separate entry of the source.
How the values were obtained:
OCI-LY3 DLBCL CDX model = test: In vivo efficacy in OCI-LY3 model, tumor growth inhibition; set-up: species or system NOD/SCID mice; details: for tumor growth inhibition (TGI): oral, 12 days post treatment; for in vivo growth of OCI-LY3 DLBCL CDX model (efficacy in words): OCI-LY3 model (CARD11 mut)
[1] = tested on: IL-10, TNF-α, IL12p70, IL-6 in serum; test: Serum cytokine secretion in OCI-LY3 tumor bearing mice, Mesoscale assay; format: in vivo, NOD/SCID mice
Method: Tumor and Serum Samples Collection on Study Termination. Whole blood samples were collected from all groups at 6 hours post the final dose. Serum samples were isolated from all groups were collected and stored at −80° C. Tumor tissues were collected from all of groups when study was terminated, and split into 2 pieces, take weights, processed to snap frozen and stored in 2 separated tubes.
Tumor and Serum Samples Collection on Study Termination. NF-κB signaling regulates the secretion of multiple cytokines, including interleukin (IL)-6 and IL-10. Secretion of the cytokines (IL-10, TNF-α, IL12p70, and IL-6) in serum samples of OCI-LY3 animals was measured by using a Mesoscale assay (MSD). For in vivo efficacy study, serum samples were isolated from all tumor bearing mice at 6 hours post the final dose of the MALT1 inhibitor of Formula I. For in vivo Pharmacodynamic (PD) experiment, serum samples were isolated from all tumor bearing mice (tumor volume around 700 mm3) at 8 hours post treatment with the MALT1 inhibitor of Formula I (BID dosing). Serum samples were transferred to an MSD plate (V-Plex Proinflammation Panel 1 [human] kit) and incubated for 2 hours at RT followed by a 2-hour incubation with cytokine antibody solution. Plates were read on a SECTOR imager.

[2] = tested on: RelB and Bcl10 cleavage in OCI-Ly3 cell line; test: Activity of MALT1 inhibitor in OCI-Ly3 cell line, inhibition of RelB and Bcl10 cleavage by Western blotting; format: cell-based; details: 24 hours, with proteasome inhibitor MG132, Western blot
Method: OCI-Ly3 cell lines were cultured for 24 hours in combination with proteasome inhibitor MG132 and indicated concentrations of MALTi. Protein lysates were probed for RelB, Bcl10 and actin or vinculin as loading controls.
Western blot analysis was performed using standard techniques. Membranes were probed with the following antibodies: anti-RelB, p-IκBα, Bcl-XL (Cell Signaling), Bcl10 (Abcam), and actin (Santa Cruz Biotechnology). Odyssey Imager (Li-Cor Biosciences) was used as a detection method according to the manufacturer's protocol.
To test MALT1 inhibition in the context of CLL, we investigated CLL functionality under divergent microenvironmental stimulations. […] Proliferation of CLL cells was induced either via CD40 stimulation in combination with IL-21, or by stimulation with CpG in combination with IL-2, IL-15 and IL-21 ([…]). […] Because of the central role of MALT1 in NF-κB signaling, we investigated known targets of NF-κB such as IL-6, IL-10 and TNFα. Both CD40, BCR and TLR9 stimulation induced cytokine secretion of IL-6, IL-10 and TNFα (FIG. 1C-E). […] The role of MALT1 in the BCR and TLR9 pathway has previously been described, but its role in the CD40 pathway is a new observation.

[3] = tested on: Bcl-2 family members Bcl-XL, Mcl-1 and Bcl-2 in CLL cells; test: Expression of Bcl-XL, Mcl-1 and Bcl-2 in stimulated CLL cells, intracellular flow cytometry; format: cell-based, human; details: CD40, BCR or TLR9 stimulation, 10 μM MALTi, 24 hours
Method: Afterwards, expression of Bcl-XL (n=13) (FIG. 2A).
(§1) CLL PBMCs were either co-cultured with 3T40 fibroblasts, stimulated with soluble or immobilized anti-IgM (SouthernBiotech, Birmingham, AL, USA) or stimulated with CpG ODN2006 (1 μg/mL) and incubated for 24 hours. Culture supernatant was collected and IL-6, IL-10, and TNFα levels were measured by commercial ELISA kits (Diaclone, Besancon, France). Intracellular flow cytometry staining was performed using Cytofix/Cytoperm according to manufacturer's protocol (BD Biosciences). Cells were stained with the following antibodies: anti-Bcl-XL-FITC, Mcl-1-PE, and Bcl-2-BV421 (BD Biosciences). Samples were measured on a FACS Canto II cytometer (BD Biosciences, San Jose, CA, USA) and analyzed using FlowJo software.

[4] = tested on: NF-κB-mediated cytokine secretion in CLL cells; test: Cytokine secretion (IL-6, IL-10, TNFα) of stimulated CLL cells, ELISA; format: cell-based, human; details: CD40, BCR and TLR9 stimulation, 24 hours
Method: (§2) FIG. 1A is a bar graph showing the results of an experiment in which CLL cells were treated with the indicated drugs and concentrations and incubated for 24 hours. For the BCR stimulation, cells were supplemented with IL-4 and αIgM. […] Bars represent the mean±SEM. FIG. 1B is a bar graph showing the results of an experiment in which CLL cells were labeled with CellTrace Violet and cultured for 5 days on 3T40 supplemented with IL-21 or on 3T3 in combination with CpG, IL-2, IL-15, and IL-21 in combination with 10 μM MALTi. Proliferation was measured using flow cytometry based on CellTrace Violet signal (n=8). […] Afterwards, culture supernatant was collected and IL-6 (n=14) (FIG. 1C), IL-10 (n=13) (FIG. 1D), and TNFα (n=14) (FIG. 1E) levels were measured using commercial ELISA kits. […] Protein lysates were probed for p-IκBα, Bcl-XL, and actin as loading control.
as §1, with “Intracellular flow cytometry staining was performed using Cytofix/Cytoperm according to manufacturer's protocol (BD Biosciences). Cells were stained with the following antibodies: anti-Bcl-XL-FITC, Mcl-1-PE, and Bcl-2-BV421 (BD Biosciences).” left out

[5] = tested on: CLL-derived and healthy T cells; test: T cell stimulation with anti-CD3/CD28: activation, proliferation, degranulation, cytokine secretion; format: cell-based, human
Method: Afterwards, cells were measured using flow cytometry. FIG. 3A are bar graphs showing T cell activation measured based on CD25. […] FIG. 3C are bar graphs showing T cell proliferation measured based on CellTrace Violet signal. FIG. 3D are bar graphs showing T cell degranulation measured in CLL (n=13) and healthy (n=3) T cells based on CD107a. After incubation, culture supernatant was collected and IFNγ (n=12) and TNFα (n=9) levels were measured using commercial ELISA kits (FIG. 3E).
(§3) CLL or healthy donor PBMCs were labeled with CFSE or CTV and stimulated with anti-CD3 (clone 1XE) and anti-CD28 (clone 15E8) antibodies for 4 days. Culture supernatant was collected and IFNγ (ThermoFisher) and TNFα (Diaclone) levels were measured by commercial ELISA kits. The activation/proliferation panel consisted of the following antibodies: CD3-μF700 (eBioscience), CD4-PE-Cy7, CD8-PerCpCy5.5, CD25-APC (BD Bioscience). The differentiation panel consisted of the following antibodies: CD27/CCR7-PerCP-eFluor710 or (eBioscience), CD4-PE-Cy7, CD8-BV786, CD25-PE, CD45RA-BV650, and FoxP3-APC (BD Biosciences). The cytotoxicity panel consisted of the following antibodies: CD107a-FITC (eBioscience), CD4-PerCPeF710, CD8-BV786, CD25-PE, and PD1-PE-Cy7 (BD Biosciences). Samples were measured on a FACS Canto II cytometer (BD Biosciences, San Jose, CA, USA) and analyzed using FlowJo software.

CLL cells [6] = test: CLL cell viability, flow cytometry with DiOC6 and TO-PRO3; format: cell-based, human; details: 24 hours, DiOC6 and TO-PRO3 staining
Method: as §2

[7] = tested on: NF-κB signaling (p-IκBα, Bcl-XL) in CLL cells; test: Western blot of p-IκBα and Bcl-XL in stimulated CLL cells; format: cell-based, human; details: 10 μM MALTi, 24 hours
Method: as §2
Western blot analysis was performed using standard techniques. […]
as §1, with “Intracellular flow cytometry staining was performed using Cytofix/Cytoperm according to manufacturer's protocol (BD Biosciences). Cells were stained with the following antibodies: anti-Bcl-XL-FITC, Mcl-1-PE, and Bcl-2-BV421 (BD Biosciences).” left out

[8] = tested on: CD4+/CD25+/FoxP3+ regulatory T cells; test: Regulatory T cell population in unstimulated PBMCs, flow cytometry; format: cell-based, human; details: unstimulated CLL and healthy donor PBMCs, 4 days
Method: (§4) Afterwards, T cell subsets were measured using flow cytometry as described. […] Afterwards, T cell subsets were measured using flow cytometry based on CD27 and CD45RA. Naïve T cells were gated as CD27^+/CD45RA^+, central memory T cells were gated as CD27^+/CD45RA^−, memory T cells were gated as CD27^−/CD45RA^−, and terminally differentiated effector memory cells re-expressing CD45RA T cells were gated as CD27^−/CD45RA^+. […] Afterwards, regulatory T cells were measured using flow cytometry and gated as CD4^+/CD25^+/FoxP3^+. Bars represent the mean±SEM, *p<0.05, ***p<0.001 (paired sample t-test).
as §3, with “The cytotoxicity panel consisted of the following antibodies: CD107a-FITC (eBioscience), CD4-PerCPeF710, CD8-BV786, CD25-PE, and PD1-PE-Cy7 (BD Biosciences).” left out

[9] = tested on: T cell subsets in CLL and healthy donor PBMCs; test: T cell differentiation and subset distribution, flow cytometry; format: cell-based, human
Method: as §4
as §3, with “The cytotoxicity panel consisted of the following antibodies: CD107a-FITC (eBioscience), CD4-PerCPeF710, CD8-BV786, CD25-PE, and PD1-PE-Cy7 (BD Biosciences).” left out

CLL cells [10] = details: CD40-, BCR- or TLR9-stimulated, 10 μM MALTi, BH3 mimetic for additional 24 hours
Method: FIGS. 2A-2C are bar graphs showing the results of experiments in which CLL cells were cultured for 24 hours on 3T40, stimulated with IL-4 and αIgM (soluble or immobilized to beads) or stimulated with CpG, and incubated for 24 hours in combination with 10 μM MALTi. […] FIGS. 2D-2I) are graphs showing the results of experiments in which, in parallel, CD40-stimulated (n=9) (FIGS. 2D-2E), BCR-stimulated (n=8) (FIGS. 2F-2G), and TLR9-stimulated (n=6) (FIGS. 2H-2I) cells were with venetoclax or S63 for an additional 24 hours. Viability was measured using flow cytometry using DiOC6 and TO-PRO3 viability staining. […]
Lymphocytes of CLL patients were co-cultured with NIH3T3 fibroblasts stably transfected with human CD40L (3T40) or negative control (3T3) as described before (Urashima et al., “CD40 Ligand Triggered Interleukin-6 Secretion in Multiple Myeloma,” Blood 85(7):1903-1912 (1995) and Schultze et al., “CD40-Activated Human B Cells: An Alternative Source of Highly Efficient Antigen Presenting Cells to Generate Autologous Antigen-Specific T Cells for Adoptive Immunotherapy,” J. Clin. Invest. 100(11):2757-2765 (1997). After 24 hours, cells were detached and incubated with or without drugs for an additional 24 hours. CLL cell viability was measured by flow cytometry using DioC6 and TO-PRO-3 viability dyes. […]

CLL cells [11] = test: Proliferation of CLL cells, CellTrace Violet; format: cell-based, human; details: 10 μM MALTi, 5 days; CD40 stimulation + IL-21 or CpG + IL-2, IL-15, IL-21
Method: as §2
CLL PBMCs were labeled with CellTrace Violet and either co-cultured with 3T40 fibroblasts and supplemented with IL-21 (25 ng/mL) or stimulated with CpG ODN2006 (1 μg/mL) and supplemented with IL-2, IL-15, and IL-21 (25 ng/mL). CLL cells were cultured for 5 days. […] Samples were measured on a FACS Canto II cytometer (BD Biosciences, San Jose, CA, USA) and proliferation was analyzed using FlowJo software.

Question: Which results are given for CC1(C)CCC(CN2CCN(c3ccc(C(=O)NS(=O)(=O)c4ccc(NCC5CCOCC5)c([N+](=O)[O-])c4)c(Oc4cnc5[nH]ccc5c4)c3)CC2)=C(c2ccc(Cl)cc2)C1 [Venetoclax, 4-[4-[[2-(4-chlorophenyl)-4,4-dimethylcyclohexen-1-yl]methyl]piperazin-1-yl]-N-[3-nitro-4-(oxan-4-ylmethylamino)phenyl]sulfonyl-2-(1H-pyrrolo[2,3-b]pyridin-5-yloxy)benzamide, reference compound]?
Answer: tumor growth inhibition (TGI) (OCI-LY3 DLBCL CDX model; 40 mg/kg QD): 0.98%; TGI (OCI-LY3 DLBCL CDX model; 40 mg/kg, QD): 0.98%; in vivo growth of OCI-LY3 DLBCL CDX model (efficacy in words) (OCI-LY3 DLBCL CDX model): did not show any efficacy; cytokine secretion levels in serum (IL-10, TNFα, IL12p70, IL6) ([1]; monotherapy): didn't show effect

Question: With O=C(Nc1ccnc(C(F)(F)F)c1)c1cnn(-c2cccc3c(=O)[nH]ccc23)c1C(F)(F)F [MALT1 inhibitor of Formula I, 1-(1-oxo-1,2-dihydroisoquinolin-5-yl)-5-(trifluoromethyl)-N-[2-(trifluoromethyl)pyridin-4-yl]-1H-pyrazole-4-carboxamide] as the compound, how does the “tumor growth inhibition (TGI)” value (OCI-LY3 DLBCL CDX model; 30 mg/kg BID) read?
Answer: 41.31%

Question: What about the TGI (OCI-LY3 DLBCL CDX model; 30 mg/kg, BID as printed, (second line of Table 4)) of the same compound?
Answer: 69.92%

Question: What about the TGI (OCI-LY3 DLBCL CDX model; 30 mg/kg, BID, (first line of Table 4)) of the same compound?
Answer: 41.31%

Question: And the “tumor growth inhibition (TGI)” value (OCI-LY3 DLBCL CDX model; 100 mg/kg BID)?
Answer: 69.92%

Question: And the “in vivo growth of OCI-LY3 DLBCL CDX model (efficacy in words)” value (OCI-LY3 DLBCL CDX model)?
Answer: moderately inhibits in vivo growth

Question: And the “inhibition of RelB and Bcl10 cleavage” value [2]?
Answer: confirmed activity

Question: And the “expression of Bcl-XL, flow cytometry” value [3]?
Answer: inhibited

Question: What about the “expression of Mcl-1 and Bcl-2, flow cytometry” value [3] of the same compound?
Answer: not significantly affected

Question: And the “NF-κB-mediated cytokine secretion (IL-6, IL-10, TNFα)” value [4]?
Answer: decreased NF-κB-mediated cytokine secretion in all conditions and was most effective in CD40-stimulated cells

Question: What about the “CD107a (LAMP-1) expression, T cell degranulation” value ([5]; anti-CD3/CD28, 4 days) of the same compound?
Answer: reduced

Question: And the “IFNγ and TNFα cytokine secretion” value ([5]; anti-CD3/CD28, 4 days, ELISA)?
Answer: significantly inhibited

Question: And the “concentrations at which in vitro T cell activation is impaired” value ([5]; anti-CD3/CD28 stimulated T cells)?
Answer: > 1 µM

Question: And the “T cell activation and proliferation (CD25, PD-1, CellTrace Violet)” value ([5]; soluble anti-CD3/CD28, 4 days, CD4 and CD8 T cells, CLL and healthy donors)?
Answer: significantly reduced

Question: And the “direct cell death in CLL cells (viability)” value (CLL cells [6])?
Answer: did not induce direct cell death

Question: And the “Bcl-XL expression, Western blot” value ([7]; BCR stimulation with soluble or immobilized anti-IgM or TLR9 stimulation via CpG)?
Answer: inhibition of Bcl-XL expression was also observed

Question: And the “p-IκBα and Bcl-XL, Western blot” value ([7]; CD40-stimulated (3T40) CLL cells)?
Answer: a decrease in p-IκBα and the NF-κB target Bcl-XL

Question: And the “IL-10, TNF-α, and IL12p70 secretion levels in serum” value ([1]; 6 hours post final dose)?
Answer: decrease IL-10, TNF-α, and IL12p70 secretion levels; also recorded: downregulate IL-10, TNF-α and IL12p70 secretion

Question: And the “CD4+/CD25+/FoxP3+ T cells” value [8]?
Answer: specific significant decrease

Question: And the “T cell subset distribution (differentiation)” value ([9]; stimulated with anti-CD3/CD28, 4 days, increasing concentrations)?
Answer: reverted the T cell subset distribution back to the phenotype seen in unstimulated cells

Question: And the “T cell subset distribution” value ([9]; unstimulated cells, 4 days)?
Answer: did not affect T cell subset distribution

Question: And the “sensitivity of stimulated CLL cells to venetoclax and S63 with concurrent MALT1 inhibition” value (CLL cells [10])?
Answer: a shift towards venetoclax and S63 sensitivity in all these conditions

Question: And the “proliferation of CLL cells” value (CLL cells [11])?
Answer: reduced both types of proliferation but did not fully block the proliferation
